pIC50: −log10 of the molar value. Calls of active or inactive are those of the source. No cut-off for these calls is given here.
Legend:
[1] = Half life in Sprague-Dawley rat at 3 mg/kg, po and measured upto 24 hrs by LC-MS/MS analysis; conditions: in vivo
[2] = AUC in Sprague-Dawley rat at 3 mg/kg, po and measured upto 24 hrs by LC-MS/MS analysis; type: ADME, organism-based; parameters: dose 3 mg/kg, time < 24 hrs, route po; conditions: Sprague-Dawley, in vivo
[3] = molecular target: Protein cereblon/Estrogen receptor (Homo sapiens, UniProt P03372+Q96SW2); experiment: Protac activity at human ERalpha in human MCF7 cells assessed as induction of ERalpha degradation by measuring maximum efficacy at 1 uM incubated for 12 hrs by ICW blot assay relative to control; type: cell-based
[4] = Volume of distribution at steady state in ICR mouse at 1 mg/kg, iv and measured upto 24 hrs by LC-MS/MS analysis; type: ADME, organism-based; conditions: in vivo, read-out: Vdss
[5] = Clearance in Beagle dog at 0.5 mg/kg, iv and measured upto 24 hrs by LC-MS/MS analysis; type: ADME, organism-based, Canis lupus familiaris; conditions: in vivo
[6] = AUC in Beagle dog at 1 mg/kg, po and measured upto 24 hrs by LC-MS/MS analysis; type: ADME, organism-based, Canis lupus familiaris; parameters: dose 1 mg/kg, time < 24 hrs, route po; conditions: in vivo
[7] = Metabolic stability in human liver microsomes assessed as half life at 1 uM and measured upto 60 mins in presence of NADPH by LC-MS/MS analysis; type: ADME, Microsome
[8] = molecular target: Voltage-gated inwardly rectifying potassium channel KCNH2 (Homo sapiens, UniProt Q12809); experiment: Inhibition of human ERG in human HEK293 cells incubated for 5 mins by patch clamp assay; type: toxicity, cell-based
[9] = molecular target: Cytochrome P450 2C9 (Homo sapiens, UniProt P11712); experiment: Inhibition of CYP2C9 in human liver microsomes preincubated for 5 mins in presence substrate followed by NADPH addition and measured after 10 mins by LC-MS/MS analysis; type: ADME, Microsome
[10] = molecular target: Cytochrome P450 2C19 (Homo sapiens, UniProt P33261); experiment: Inhibition of CYP2C19 in human liver microsomes preincubated for 5 mins in presence substrate followed by NADPH addition and measured after 10 mins by LC-MS/MS analysis; type: ADME, Microsome
[11] = molecular target: Cytochrome P450 2D6 (Homo sapiens, UniProt P10635); experiment: Inhibition of CYP2D6 in human liver microsomes preincubated for 5 mins in presence substrate followed by NADPH addition and measured after 10 mins by LC-MS/MS analysis; type: ADME, Microsome
[12] = Downregulation of ERalpha protein expression in tumor of CB17 SCID mouse xenografted with human MCF7 cells harboring wild type ESR1 at 10 mg/kg, po qd for 3 days and measured after 6 hrs last dose by Western blot analysis relative to control; type: functional; conditions: time 3 day
[13] = Downregulation of ERalpha protein expression in tumor of CB17 SCID mouse xenografted with human MCF7 cells harboring wild type ESR1 at 10 mg/kg, po qd for 3 days and measured after 24 hrs last dose by Western blot analysis relative to control; type: functional; conditions: time 3 day
[14] = Downregulation of ERalpha protein expression in tumor of CB17 SCID mouse xenografted with human MCF7 cells harboring wild type ESR1 at 30 mg/kg, po qd for 3 days and measured after 24 hrs last dose by Western blot analysis relative to control; type: functional; conditions: time 3 day
[15] = Drug concentration in plasma of CB17 SCID mouse xenografted with human MCF7 cells harboring wild type ESR1 at 10 mg/kg, po qd for 3 days and measured after 24 hrs last dose by LC-MS/MS analysis; type: ADME, organism-based; conditions: time 3 day
[16] = Drug concentration in plasma of CB17 SCID mouse xenografted with human MCF7 cells harboring wild type ESR1 at 30 mg/kg, po qd for 3 days and measured after 6 hrs last dose by LC-MS/MS analysis; type: ADME, organism-based; conditions: time 3 day
[17] = Drug concentration in plasma of CB17 SCID mouse xenografted with human MCF7 cells harboring wild type ESR1 at 30 mg/kg, po qd for 3 days and measured after 24 hrs last dose by LC-MS/MS analysis; type: ADME, organism-based; conditions: time 3 day
[18] = Drug concentration in tumor of CB17 SCID mouse xenografted with human MCF7 cells harboring wild type ESR1 at 10 mg/kg, po qd for 3 days and measured after 24 hrs last dose by LC-MS/MS analysis; type: ADME, organism-based, Neoplasm; conditions: time 3 day, read-out: Ct
[19] = Drug concentration in plasma of CB17 SCID mouse xenografted with human MCF7 cells harboring wild type ESR1 at 30 mg/kg, po qd for 3 days and measured after 3 hrs last dose by LC-MS/MS analysis; type: ADME, organism-based; conditions: time 3 day
[20] = Drug concentration in tumor of CB17 SCID mouse xenografted with human MCF7 cells harboring wild type ESR1 at 30 mg/kg, po qd for 3 days and measured after 3 hrs last dose by LC-MS/MS analysis; type: ADME, organism-based, Neoplasm; conditions: time 3 day, read-out: Ct
[21] = Downregulation of ERalpha protein expression in tumor of CB17 SCID mouse xenografted with human MCF7 cells harboring ESR1 Y537S mutant at 30 mg/kg, po qd for 3 days and measured after 6 hrs last dose by Western blot analysis relative to control; type: functional; conditions: time 3 day
[22] = Drug concentration in tumor of CB17 SCID mouse xenografted with human MCF7 cells harboring ESR1 Y537S mutant at 10 mg/kg, po qd for 3 days and measured after 6 hrs last dose by LC-MS/MS analysis; type: ADME, organism-based, Neoplasm; conditions: time 3 day, read-out: Ct
[23] = Drug concentration in plasma of CB17 SCID mouse xenografted with human MCF7 cells harboring ESR1 D538G mutant at 10 mg/kg, po qd for 3 days and measured after 6 hrs last dose by LC-MS/MS analysis; type: ADME, organism-based; conditions: time 3 day
[24] = tested on: MCF7; experiment: Antitumor activity against human MCF7 cells harboring wild type ESR1 xenografted in CB17 SCID mouse assessed as tumor growth inhibition at 10 mg/kg, po qd for 5 weeks and measured 3 weeks post last dose; type: functional; conditions: MCF7, 840 h, read-out: TGI
[25] = tested on: MCF7; experiment: Antitumor activity against human MCF7 cells harboring ESR1 Y537S mutant xenografted in CB17 SCID mouse assessed as tumor growth inhibition at 10 mg/kg, po qd for 4 weeks and measured 30 days post last dose; type: functional; conditions: MCF7, 672 h, read-out: TGI
[26] = tested on: MCF7; experiment: Antitumor activity against human MCF7 cells harboring ESR1 D538G mutant xenografted in CB17 SCID mouse assessed as tumor growth inhibition at 30 mg/kg, po qd for 4 weeks and measured 1 week post last dose; type: functional, organism-based
[27] = Toxicity in CB17 SCID mouse xenografted with human MCF7 cells harboring wild type ESR1 assessed as body weight change at 10 mg/kg,po qd for 5 weeks; type: organism-based; conditions: in vivo, 840 h
[28] = Toxicity in CB17 SCID mouse xenografted with human MCF7 cells harboring wild type ESR1 assessed as body weight change at 30 mg/kg,po qd for 5 weeks; type: organism-based; conditions: in vivo, 840 h
[29] = Toxicity in CB17 SCID mouse xenografted with human MCF7 cells harboring ESR1 Y537S mutant assessed as body weight change at 10 mg/kg,po qd for 4 weeks; type: organism-based; conditions: in vivo, 672 h
[30] = Toxicity in CB17 SCID mouse xenografted with human MCF7 cells harboring ESR1 D538G mutant assessed as body weight change at 10 mg/kg,po qd for 4 weeks; type: organism-based; conditions: in vivo, 672 h
[31] = in vivo; conditions: Sprague-Dawley, rat, po, 3 mg/kg

Cytochrome P450 2C9, sequence (P11712 whole entry): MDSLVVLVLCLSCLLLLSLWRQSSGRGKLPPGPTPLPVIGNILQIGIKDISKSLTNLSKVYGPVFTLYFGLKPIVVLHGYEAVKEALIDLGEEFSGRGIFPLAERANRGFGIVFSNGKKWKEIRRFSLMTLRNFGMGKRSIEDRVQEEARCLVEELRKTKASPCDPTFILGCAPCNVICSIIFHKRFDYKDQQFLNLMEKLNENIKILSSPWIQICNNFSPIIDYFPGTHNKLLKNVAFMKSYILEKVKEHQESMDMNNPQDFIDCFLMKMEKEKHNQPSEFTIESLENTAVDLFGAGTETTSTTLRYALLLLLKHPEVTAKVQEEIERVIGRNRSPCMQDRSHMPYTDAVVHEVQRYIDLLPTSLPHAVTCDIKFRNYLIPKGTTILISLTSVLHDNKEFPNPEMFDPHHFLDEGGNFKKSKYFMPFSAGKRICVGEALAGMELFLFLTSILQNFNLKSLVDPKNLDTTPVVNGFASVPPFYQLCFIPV
Cytochrome P450 2D6, sequence (P10635 whole entry): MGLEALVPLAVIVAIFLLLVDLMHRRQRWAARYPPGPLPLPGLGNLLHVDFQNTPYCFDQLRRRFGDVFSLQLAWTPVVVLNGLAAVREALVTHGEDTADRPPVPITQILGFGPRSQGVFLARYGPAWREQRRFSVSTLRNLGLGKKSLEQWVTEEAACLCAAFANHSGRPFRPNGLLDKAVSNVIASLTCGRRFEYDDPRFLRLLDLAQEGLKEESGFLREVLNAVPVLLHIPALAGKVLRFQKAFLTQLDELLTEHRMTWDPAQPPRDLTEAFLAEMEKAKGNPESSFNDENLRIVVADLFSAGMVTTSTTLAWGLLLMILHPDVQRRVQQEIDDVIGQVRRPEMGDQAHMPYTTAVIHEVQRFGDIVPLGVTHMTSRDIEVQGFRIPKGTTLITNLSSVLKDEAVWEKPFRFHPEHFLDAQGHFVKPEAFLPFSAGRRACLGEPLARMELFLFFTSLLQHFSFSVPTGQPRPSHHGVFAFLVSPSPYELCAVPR
Protein cereblon/Estrogen receptor, sequence (P03372 whole entry, looked up): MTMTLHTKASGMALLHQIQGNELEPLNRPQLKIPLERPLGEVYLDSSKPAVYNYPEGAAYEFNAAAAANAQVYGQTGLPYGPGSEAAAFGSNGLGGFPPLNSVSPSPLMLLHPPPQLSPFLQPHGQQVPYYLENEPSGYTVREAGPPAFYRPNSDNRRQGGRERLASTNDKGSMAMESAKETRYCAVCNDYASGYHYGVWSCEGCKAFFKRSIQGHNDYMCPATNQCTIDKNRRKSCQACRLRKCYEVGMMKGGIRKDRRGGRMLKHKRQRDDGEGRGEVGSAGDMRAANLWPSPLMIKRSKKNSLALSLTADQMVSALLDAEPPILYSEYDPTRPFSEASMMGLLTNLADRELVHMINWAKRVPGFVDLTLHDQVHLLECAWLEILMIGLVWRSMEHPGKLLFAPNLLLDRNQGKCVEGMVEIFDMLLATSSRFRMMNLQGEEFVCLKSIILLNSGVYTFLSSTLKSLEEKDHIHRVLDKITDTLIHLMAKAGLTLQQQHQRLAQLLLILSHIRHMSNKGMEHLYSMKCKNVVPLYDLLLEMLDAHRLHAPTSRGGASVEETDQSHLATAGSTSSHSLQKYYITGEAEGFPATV
Protein cereblon/Estrogen receptor, sequence (Q96SW2 whole entry, looked up): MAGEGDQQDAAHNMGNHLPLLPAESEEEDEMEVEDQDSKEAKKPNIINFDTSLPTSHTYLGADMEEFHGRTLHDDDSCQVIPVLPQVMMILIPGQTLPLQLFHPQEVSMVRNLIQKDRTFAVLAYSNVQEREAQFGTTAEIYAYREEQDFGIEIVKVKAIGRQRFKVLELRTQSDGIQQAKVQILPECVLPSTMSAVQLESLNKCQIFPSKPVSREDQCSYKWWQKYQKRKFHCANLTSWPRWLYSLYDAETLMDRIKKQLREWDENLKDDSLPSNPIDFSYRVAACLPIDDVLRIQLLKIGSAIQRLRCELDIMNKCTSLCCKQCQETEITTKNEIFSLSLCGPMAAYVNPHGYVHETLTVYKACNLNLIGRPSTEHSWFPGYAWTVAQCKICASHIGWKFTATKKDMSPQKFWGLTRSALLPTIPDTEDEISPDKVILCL
Voltage-gated inwardly rectifying potassium channel KCNH2, sequence (Q12809 whole entry): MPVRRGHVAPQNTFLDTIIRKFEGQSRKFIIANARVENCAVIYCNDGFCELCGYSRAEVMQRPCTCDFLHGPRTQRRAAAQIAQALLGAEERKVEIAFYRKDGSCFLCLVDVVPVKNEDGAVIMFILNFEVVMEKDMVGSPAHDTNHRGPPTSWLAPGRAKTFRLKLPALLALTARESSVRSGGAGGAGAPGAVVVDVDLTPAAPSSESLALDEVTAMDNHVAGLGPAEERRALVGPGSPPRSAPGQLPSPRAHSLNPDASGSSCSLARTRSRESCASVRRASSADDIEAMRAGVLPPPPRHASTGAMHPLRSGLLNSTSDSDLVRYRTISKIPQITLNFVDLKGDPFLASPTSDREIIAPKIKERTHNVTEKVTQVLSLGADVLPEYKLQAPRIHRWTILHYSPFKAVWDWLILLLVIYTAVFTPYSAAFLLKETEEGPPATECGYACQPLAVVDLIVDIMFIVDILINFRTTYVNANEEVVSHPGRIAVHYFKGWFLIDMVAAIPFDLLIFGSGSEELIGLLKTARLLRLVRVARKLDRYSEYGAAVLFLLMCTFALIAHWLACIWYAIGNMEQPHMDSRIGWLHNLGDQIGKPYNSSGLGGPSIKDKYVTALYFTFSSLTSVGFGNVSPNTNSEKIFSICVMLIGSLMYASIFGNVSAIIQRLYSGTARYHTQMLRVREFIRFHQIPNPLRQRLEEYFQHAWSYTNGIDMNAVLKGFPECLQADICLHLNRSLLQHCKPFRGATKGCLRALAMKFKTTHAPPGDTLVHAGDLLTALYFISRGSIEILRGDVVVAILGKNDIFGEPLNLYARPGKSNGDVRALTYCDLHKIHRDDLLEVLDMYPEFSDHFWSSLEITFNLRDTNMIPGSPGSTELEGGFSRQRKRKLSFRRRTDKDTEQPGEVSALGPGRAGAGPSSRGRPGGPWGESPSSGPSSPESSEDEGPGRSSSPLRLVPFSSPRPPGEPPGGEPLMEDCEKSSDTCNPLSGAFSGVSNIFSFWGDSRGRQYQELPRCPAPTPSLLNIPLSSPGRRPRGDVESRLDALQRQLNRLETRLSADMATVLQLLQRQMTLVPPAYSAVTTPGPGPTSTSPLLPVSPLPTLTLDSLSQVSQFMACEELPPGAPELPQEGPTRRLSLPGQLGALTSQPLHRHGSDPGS
Cytochrome P450 2C19, sequence (P33261 whole entry): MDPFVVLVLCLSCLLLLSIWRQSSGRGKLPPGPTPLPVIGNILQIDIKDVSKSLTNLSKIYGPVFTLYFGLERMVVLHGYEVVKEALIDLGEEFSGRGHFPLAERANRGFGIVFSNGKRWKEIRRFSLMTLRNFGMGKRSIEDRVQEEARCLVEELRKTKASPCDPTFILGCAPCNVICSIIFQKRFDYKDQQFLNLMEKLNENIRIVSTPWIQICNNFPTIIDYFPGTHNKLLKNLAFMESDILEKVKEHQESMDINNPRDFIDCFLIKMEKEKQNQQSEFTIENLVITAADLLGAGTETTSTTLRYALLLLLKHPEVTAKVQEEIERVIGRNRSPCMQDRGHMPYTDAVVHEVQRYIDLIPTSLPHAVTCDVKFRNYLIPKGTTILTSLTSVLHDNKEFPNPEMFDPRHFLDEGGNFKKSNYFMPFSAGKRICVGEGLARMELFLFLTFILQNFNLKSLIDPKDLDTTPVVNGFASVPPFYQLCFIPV

C[C@@H]1Cc2c(ccc3[nH]ncc23)[C@@H](c2c(F)cc(N3CCC4(CCN(C(=O)CN5Cc6cc7c(cc6C5)C(=O)N(C5CCC(=O)NC5=O)C7=O)CC4)CC3)cc2F)N1CC(F)F (stereo partly specified)
half-life at 24 h [1]: 4 h | AUC at 24 h [2]: 1320 ng·h/mL | Emax [3]: 91% | Vd [4]: 3.2 L/kg | clearance [5]: 11 mL/min/kg | AUC at 24 h [6]: 937 ng·h/mL | half-life at 1 µM [7]: > 1 h | pIC50 [8]: < 4.52 | pIC50 [9]: < 5.00 | pIC50 [10]: < 5.00 | pIC50 [11]: < 5.00 | Activity [12]: 66% | Activity [13]: 70% | Activity [14]: 73% | concentration at 72 h [15]: 18 ng/mL | concentration at 72 h [16]: 1440 ng/mL | concentration at 72 h [17]: 80 ng/mL | concentration at 72 h [18]: 162 ng/mL | concentration at 72 h [19]: 1980 ng/mL | concentration at 72 h [20]: 1410 ng/mL | Activity [21]: 85% | concentration at 72 h [22]: 692 ng/mL | concentration at 72 h [23]: 609 ng/mL | inhibition in vivo at 10 mg/kg [24]: 13% | inhibition in vivo at 10 mg/kg [25]: 99% | Activity [26]: Active | Activity [27]: Non-Toxic | Activity [28]: Non-Toxic | Activity [29]: Non-Toxic | Activity [30]: Non-Toxic | bioavailability at 24 h [31]: 20%

Source: ChEMBL document CHEMBL5321293, “Discovery of ERD-3111 as a Potent and Orally Efficacious Estrogen Receptor PROTAC Degrader with Strong Antitumor Activity” (J Med Chem, 2023)
